From paper PMC3269522 (2011)
pIC50: −log10 of the molar value.

Biological target: CyaB (Pseudomonas aeruginosa, UniProt Q9HZ23)
Assay: adenylyl cyclase activity assay with purified enzyme
Type: biochemical

KH7.148
pIC50: ~5.00
